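Cultured in 96-well plates, cells were exposed to test compound for 48 hours across five concentrations. GI50 marks 50% less growth. TGI: total growth inhibition.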
Tests used:
Assay in all cases: NCI anticancer screen, dose series, 48 h
SK-MEL-2 melanoma = system: SK-MEL-2 melanoma
T-47D breast = system: T-47D breast
OVCAR-4 ovarian = system: OVCAR-4 ovarian
SK-MEL-28 melanoma = system: SK-MEL-28 melanoma
786-0 renal = system: 786-0 renal
HOP-62 NSCLC = system: HOP-62 NSCLC
M14 melanoma = system: M14 melanoma
MDA-MB-435 = system: MDA-MB-435
A549 NSCLC = system: A549 NSCLC
SF-268 CNS = system: SF-268 CNS
HT29 colon = system: HT29 colon
HCT-15 colon = system: HCT-15 colon
RXF 393 renal = system: RXF 393 renal
DU-145 prostate = system: DU-145 prostate
COLO 205 colon = system: COLO 205 colon
SN12C renal = system: SN12C renal
NCI/ADR-RES ovarian = system: NCI/ADR-RES ovarian
CCRF-CEM leukemia = system: CCRF-CEM leukemia
K-562 leukemia = system: K-562 leukemia
HS 578T breast = system: HS 578T breast
PC-3 prostate = system: PC-3 prostate
SF-539 CNS = system: SF-539 CNS
SR leukemia = system: SR leukemia
KM12 colon = system: KM12 colon
SK-MEL-5 melanoma = system: SK-MEL-5 melanoma
SK-OV-3 ovarian = system: SK-OV-3 ovarian
NCI-H226 lung = system: NCI-H226 lung
CAKI-1 renal = system: CAKI-1 renal
LOX IMVI melanoma = system: LOX IMVI melanoma
NCI-H23 lung = system: NCI-H23 lung
NCI-H460 lung = system: NCI-H460 lung
UACC-62 melanoma = system: UACC-62 melanoma
HCC-2998 colon = system: HCC-2998 colon
MALME-3M melanoma = system: MALME-3M melanoma
NCI-H522 lung = system: NCI-H522 lung
MOLT-4 leukemia = system: MOLT-4 leukemia
HCT-116 colon = system: HCT-116 colon
U251 CNS = system: U251 CNS
SW-620 colon = system: SW-620 colon
OVCAR-3 ovarian = system: OVCAR-3 ovarian
ACHN renal = system: ACHN renal
UO-31 renal = system: UO-31 renal
UACC-257 melanoma = system: UACC-257 melanoma
BT-549 breast = system: BT-549 breast
SNB-75 CNS = system: SNB-75 CNS
OVCAR-8 ovarian = system: OVCAR-8 ovarian
A498 renal = system: A498 renal
HOP-92 NSCLC = system: HOP-92 NSCLC
TK-10 renal = system: TK-10 renal
SF-295 CNS = system: SF-295 CNS
OVCAR-5 ovarian = system: OVCAR-5 ovarian
MDA-MB-231 breast = system: MDA-MB-231 breast
EKVX NSCLC = system: EKVX NSCLC
MCF7 breast = system: MCF7 breast
HL-60(TB) leukemia = system: HL-60(TB) leukemia
RPMI-8226 leukemia = system: RPMI-8226 leukemia
IGROV1 ovarian = system: IGROV1 ovarian
SNB-19 CNS = system: SNB-19 CNS

## COc1cc(NC(=O)c2ccc(C(F)(F)F)nc2Nc2cc(Cl)ccc2C)cc(OC)c1OC
SK-MEL-2 melanoma
  GI50: 8.16 µM
  TGI: 28.6 µM
T-47D breast
  GI50: 3.99 µM
  TGI: 27.1 µM
OVCAR-4 ovarian
  GI50: 3.16 µM
  TGI: 43.5 µM
SK-MEL-28 melanoma
  GI50: 8.74 µM
  TGI: 27 µM
786-0 renal
  GI50: 4.72 µM
  TGI: 21.4 µM
HOP-62 NSCLC
  GI50: 5.1 µM
  TGI: 16.6 µM
M14 melanoma
  GI50: 4.64 µM
  TGI: 20.8 µM
MDA-MB-435
  GI50: 4.94 µM
  TGI: 34.2 µM
A549 NSCLC
  GI50: 6 µM
  TGI: 45.7 µM
SF-268 CNS
  GI50: 6.63 µM
  TGI: 27.8 µM
HT29 colon
  GI50: 8.12 µM
  TGI: 22.9 µM
HCT-15 colon
  GI50: 4.35 µM
  TGI: 19 µM
RXF 393 renal
  GI50: 6.52 µM
  TGI: 27.9 µM
DU-145 prostate
  GI50: 12.6 µM
  TGI: 39.6 µM
COLO 205 colon
  GI50: 7 µM
  TGI: 20.6 µM
SN12C renal
  GI50: 7.76 µM
  TGI: 24.2 µM
NCI/ADR-RES ovarian
  GI50: 5.91 µM
  TGI: 48.3 µM
CCRF-CEM leukemia
  GI50: 0.452 µM
  TGI: 22 µM
K-562 leukemia
  GI50: 1.77 µM
  TGI: 25.9 µM
HS 578T breast
  GI50: 3.9 µM
  TGI: 19.4 µM
PC-3 prostate
  GI50: 1.89 µM
  TGI: 12.2 µM
SF-539 CNS
  GI50: 9.89 µM
  TGI: 50.8 µM
SR leukemia
  GI50: 0.215 µM
  TGI: 1.57 µM
KM12 colon
  GI50: 4.51 µM
  TGI: 22 µM
SK-MEL-5 melanoma
  GI50: 1.75 µM
  TGI: 12.3 µM
SK-OV-3 ovarian
  GI50: 7.69 µM
  TGI: 29.6 µM
NCI-H226 lung
  GI50: 11.2 µM
  TGI: 32.8 µM
CAKI-1 renal
  GI50: 4.88 µM
  TGI: 41.8 µM
LOX IMVI melanoma
  GI50: 7.06 µM
  TGI: 20 µM
NCI-H23 lung
  GI50: 3.06 µM
  TGI: 27.8 µM
NCI-H460 lung
  GI50: 6 µM
  TGI: 21.3 µM
UACC-62 melanoma
  GI50: 2.53 µM
  TGI: 17 µM
HCC-2998 colon
  GI50: 0.985 µM
  TGI: 15 µM
MALME-3M melanoma
  GI50: 9.84 µM
  TGI: 47.7 µM
NCI-H522 lung
  GI50: 2.93 µM
  TGI: 18.2 µM
MOLT-4 leukemia
  TGI: 0.823 µM
HCT-116 colon
  GI50: 2.93 µM
  TGI: 14.1 µM
U251 CNS
  GI50: 4.27 µM
  TGI: 16.9 µM
SW-620 colon
  GI50: 6.49 µM
  TGI: 21.6 µM
OVCAR-3 ovarian
  GI50: 6.47 µM
  TGI: 34.1 µM
ACHN renal
  GI50: 5.13 µM
  TGI: 34 µM
UO-31 renal
  GI50: 3.48 µM
  TGI: 16 µM
UACC-257 melanoma
  GI50: 4.55 µM
  TGI: 19.7 µM
BT-549 breast
  GI50: 6.56 µM
  TGI: 21.4 µM
SNB-75 CNS
  GI50: 3.07 µM
  TGI: 24.4 µM
OVCAR-8 ovarian
  GI50: 10.8 µM
  TGI: > 80.1 µM
A498 renal
  GI50: 4.14 µM
  TGI: 18.2 µM
HOP-92 NSCLC
  GI50: 0.801 µM
  TGI: 11 µM
TK-10 renal
  GI50: 15.8 µM
  TGI: > 67.9 µM
SF-295 CNS
  GI50: 5.66 µM
  TGI: 24.4 µM
OVCAR-5 ovarian
  GI50: 12.3 µM
  TGI: 35.6 µM
MDA-MB-231 breast
  GI50: 2.94 µM
  TGI: 14.3 µM
EKVX NSCLC
  GI50: 4.54 µM
  TGI: 37.6 µM
MCF7 breast
  GI50: 3.78 µM
  TGI: 27.4 µM
HL-60(TB) leukemia
  GI50: 0.194 µM
  TGI: 7.8 µM
RPMI-8226 leukemia
  GI50: 1.18 µM
  TGI: 16.3 µM
IGROV1 ovarian
  GI50: 0.852 µM
  TGI: 20.2 µM
SNB-19 CNS
  GI50: 10.4 µM
  TGI: 30.5 µM

— PubChem BioAssay (NCI)
